Data as given in PMC2653189 (PLoS ONE, 2009).

Experiments:
[1] = system: breast cancer cell lines tested; assay: Apoptosis assay, all breast cancer cell lines tested; assay type: cell-based, Human; settings: any of the breast cancer cell lines tested; data not shown
Method: Human breast carcinoma cell lines MDA-MB-468, MDA-MB-231, MBA-MD-435 and MCF7 were kindly provided by Dr. Powel H. Brown (Breast Cancer Center, Baylor College of Medicine). Breast cancer cell line, MDA-MB-453 was kindly provided by Dr. Shou Jiang (Breast Cancer Center, Baylor College of Medicine). All cell lines were grown in DMEM medium supplemented with 10% fetal bovine serum (FBS), 25,000 units penicillin G, 25,000 µg streptomycin, and 131.4 mg L-Glutamine and cultured in the incubator under the condition of 95% air, 5% CO2 at 37°C [33]. Cells were seeded at 2,500 cells/cm^2 into 12-well plates. At 80% confluency, cells were washed with PBS and supplemented with fresh medium containing compound or the topoisomerase I-inhibitor, camptothecin, at 0, 0.1, 0.3, 1, 3, 10, 30, 100, 300 µM. At 24 hours, treatment was terminated by removing the medium from each well. Cells were lysed with cell lysis buffer (600 µl for 30 minutes at 25°C). […] The percent maximum nucleosome level was calculated by dividing the nucleosome level by the maximum nucleosome level achieved in the assay and multiplying by 100. This value was plotted as a function of the log compound concentration and the best-fitting curve and EC50 value determined using 4-Parameter Logistic Model/Dose Response/XLfit 4.2, IDBS software.

[2] = system: IFN-γ-mediated Stat1 phosphorylation; assay: Immunoblot of IFN-γ-mediated Stat1 phosphorylation in HepG2 cells; assay type: cell-based, human; settings: compound 300 µM 1 hour, IFN-γ 30 ng/ml 30 min
Method: The human hepatocellular carcinoma cell line (HepG2) was grown in 6-well plates under standard conditions. Cells were pretreated with compounds (0, 1, 3, 10, 30, 100 and 300 µM) for 1 hour then stimulated under optimal conditions with either interleukin-6 (IL-6; 30 ng/ml for 30 min) to activate Stat3 or interferon gamma (IFN-γ; 30 ng/ml for 30 min) to activate Stat1 [28]. Cultures were then harvested and proteins extracted using high-salt buffer, as described. Briefly, extracts were mixed with 2× sodium dodecyl sulfate (SDS) sample buffer (125 mM Tris-HCL pH 6.8; 4% SDS; 20% glycerol; 10% 2-mercaptoethanol) at a 1∶1 ratio and heated for 5 minutes at 100°C. Proteins (20 µg) were separated by 7.5% SDS-PAGE and transferred to polyvinylidene fluoride (PVDF) membrane (Millipore, Waltham, MA) and immunoblotted. Prestained molecular weight markers (BioRad; Hercules, CA) were included in each gel. Membranes were probed serially with antibody against Stat1 pY701 or Stat3 pY705 followed by antibody against Stat1 or Stat3 (Transduction labs, Lexington, KY) then antibody against β–actin (Abcam, Cambridge, MA). Membranes were stripped between antibody probing using Restore™ Western Blot Stripping Buffer (Thermo Fisher Scientific Inc., Waltham, MA) per the manufacturer's instructions. Horseradish peroxidase-conjugated goat-anti-mouse IgG was used as the secondary antibody (Invitrogen Carlsbad, CA) and the membranes were developed with enhanced chemiluminescence (ECL) detection system (Amersham Life Sciences Inc.; Arlington Heights, IL.).
Figure 2 Effect of compounds on ligand-mediated Stat3 and Stat1 phosphorylation. […] Cells were then stimulated with IL-6 (30 ng/ml) for 30 min. Protein extracts of cells were separated by SDS-PAGE, blotted and developed serially with antibodies to pStat3, total Stat3 and β-actin. Blots were stripped between each antibody probing. Band intensities were quantified by densitometry. The value of each pStat3 band was divided by its corresponding total Stat3 band intensity; the results were normalized to the DMSO-treated control value. This value was plotted as a function of the log compound concentration. The best-fitting curve was determined using 4-Parameter Logistic Model/Dose Response/XLfit 4.2, IDBS software and was used to calculate the IC50 value (Table 1). Each panel is representative of 3 or more experiments. In panel G, HepG2 cells were pretreated with DMSO alone or DMSO containing each of the compounds at a concentration of 300 µM for 60 min. Cells were then stimulated with IFN-γ (30 ng/ml) for 30 min. Protein extracts of cells were separated by SDS-PAGE and immunoblotted serially with antibodies to pStat1, total Stat1 and β-actin. Blots were stripped between each immunoblotting. The results shown are representative of 2 or more experiments.

[3] = system: breast cancer cell lines with constitutive Stat3 activity—MDA-MB-468, MDA-MB-231 and MDA-MB-435; assay: Apoptosis assay, summary over the cell lines with constitutive Stat3 activity; assay type: cell-based; settings: Homo sapiens, 24 hr, read-out: EC50 apoptosis induction, range over three cell lines
Method: (§1) Human breast carcinoma cell lines MDA-MB-468, MDA-MB-231, MBA-MD-435 and MCF7 were kindly provided by Dr. Powel H. Brown (Breast Cancer Center, Baylor College of Medicine). Breast cancer cell line, MDA-MB-453 was kindly provided by Dr. Shou Jiang (Breast Cancer Center, Baylor College of Medicine). All cell lines were grown in DMEM medium supplemented with 10% fetal bovine serum (FBS), 25,000 units penicillin G, 25,000 µg streptomycin, and 131.4 mg L-Glutamine and cultured in the incubator under the condition of 95% air, 5% CO2 at 37°C [33]. Cells were seeded at 2,500 cells/cm^2 into 12-well plates. At 80% confluency, cells were washed with PBS and supplemented with fresh medium containing compound or the topoisomerase I-inhibitor, camptothecin, at 0, 0.1, 0.3, 1, 3, 10, 30, 100, 300 µM. At 24 hours, treatment was terminated by removing the medium from each well. Cells were lysed with cell lysis buffer (600 µl for 30 minutes at 25°C). Cell lysate (200 µl) was centrifuged at 200 g for 10 minutes and 20 µl of each supernatant was assayed for nucleosomes using the Cell Death Detection ELISA (Roche Applied Science) as described by the manufacturer. The percent maximum nucleosome level was calculated by dividing the nucleosome level by the maximum nucleosome level achieved in the assay and multiplying by 100.
(§2) MDA-MB-468 (panel A), MDA-MB-231 (panel B), MDA-MB-435 (panel C), MCF7 (panel D) and MDA-MB-453 (panel E) were seeded in 12-well plates, grown overnight then treated with the indicated compound for 24 hr. Cells were centrifuged and the supernatants assayed for nucleosome levels by ELISA. The percent maximum nucleosome level was calculated (nucleosome level ÷ maximum nucleosome level achieved in the assay ×100) and plotted as a function of the log compound concentration. The best-fitting curve was determined using 4-ParameterLogistic Model/Dose Response One Site/XLfit 4.2, IDBS software and was used to determine the EC50 value (Table 3).

[4] = system: cell lines MDA-MB-453 and MCF7; assay: Apoptosis assay, summary over the cell lines without constitutive Stat3 activity; assay type: cell-based; settings: Homo sapiens, concentrations up to 300 µM, read-out: EC50 apoptosis induction, MDA-MB-453 and MCF7
Method: as §1, §2

MCF7 = assay: Breast cancer cell line apoptosis assay (nucleosome ELISA); assay type: cell-based; settings: Homo sapiens, 24 hr, read-out: EC50 apoptosis induction
Method: as §1, with “100. This value was plotted as a function of the log compound concentration and the best-fitting curve and EC50 value determined using 4-Parameter Logistic Model/Dose Response/XLfit 4.2, IDBS software.” for “100.”
as §2, with “Figure 5 Apoptosis induction of breast cancer cell lines by compounds; selective apoptosis of cell lines that are Stat3 dependent. MDA-MB-468” for “MDA-MB-468”

MDA-MB-453 = assay: as above; assay type: cell-based; settings: Homo sapiens, 24 hr, read-out: EC50 apoptosis induction
Method: as §1, with “100. This value was plotted as a function of the log compound concentration and the best-fitting curve and EC50 value determined using 4-Parameter Logistic Model/Dose Response/XLfit 4.2, IDBS software.” for “100.”
as §2, with “Figure 5 Apoptosis induction of breast cancer cell lines by compounds; selective apoptosis of cell lines that are Stat3 dependent. MDA-MB-468” for “MDA-MB-468”

MDA-MB-435 = assay: as above; assay type: cell-based; settings: Homo sapiens, 24 hr, read-out: EC50 apoptosis induction
Method: as §1, with “100. This value was plotted as a function of the log compound concentration and the best-fitting curve and EC50 value determined using 4-Parameter Logistic Model/Dose Response/XLfit 4.2, IDBS software.” for “100.”
as §2, with “Figure 5 Apoptosis induction of breast cancer cell lines by compounds; selective apoptosis of cell lines that are Stat3 dependent. MDA-MB-468” for “MDA-MB-468”

MDA-MB-231 = assay: as above; assay type: cell-based; settings: Homo sapiens, 24 hr, read-out: EC50 apoptosis induction
Method: as §1, with “100. This value was plotted as a function of the log compound concentration and the best-fitting curve and EC50 value determined using 4-Parameter Logistic Model/Dose Response/XLfit 4.2, IDBS software.” for “100.”
as §2, with “Figure 5 Apoptosis induction of breast cancer cell lines by compounds; selective apoptosis of cell lines that are Stat3 dependent. MDA-MB-468” for “MDA-MB-468”

MDA-MB-468 = assay: as above; assay type: cell-based; settings: Homo sapiens, 24 hr, read-out: EC50 apoptosis induction
Method: as §1, with “100. This value was plotted as a function of the log compound concentration and the best-fitting curve and EC50 value determined using 4-Parameter Logistic Model/Dose Response/XLfit 4.2, IDBS software.” for “100.”
as §2, with “Figure 5 Apoptosis induction of breast cancer cell lines by compounds; selective apoptosis of cell lines that are Stat3 dependent. MDA-MB-468” for “MDA-MB-468”

With `COC(=O)Cc1c(C)c2ccc(OCc3ccc(C(=O)OC)cc3)c(C)c2oc1=O` [Cpd3-7, methyl 4-({[3-(2-methoxy-2-oxoethyl)-4,8-dimethyl-2-oxo-2H-chromen-7-yl]oxy}methyl)benzoate] the “Apoptosis induction (in words)” value [1] was “neither Cpd3-2 nor Cpd3-7 induced apoptosis” and the “Block of IFN-γ-stimulated Stat1 phosphorylation” value [2] was “did not”.
`CCN1C(=O)C(=Cc2ccc(-c3ccc(C(=O)O)cc3)o2)SC1=S` [Cpd30, 4-{5-[(3-ethyl-4-oxo-2-thioxo-1,3-thiazolidin-5-ylidene)methyl]-2-furyl}benzoic acid] was tested, and the EC50 [3] was 6.4 to 92.2 µM, the EC50 [4] was > 300 µM and the EC50 (MCF7) was > 300 µM. For the same compound, the EC50 (MDA-MB-453) was > 300 µM, the EC50 (MDA-MB-435) was 16.3 µM and the EC50 (MDA-MB-231) was 92 µM. The EC50 (MDA-MB-468) was 6.42 µM and the “Block of IFN-γ-stimulated Stat1 phosphorylation” value [2] was “did not”.
